For data set [1], the species on record is Rattus norvegicus. The note with it: in vivo, po, 10 mg/kg, 17 h.
A short description of another data set: physchem. The following applies: n-octanol/water.
The species named for data set [2] is Rattus norvegicus. As to the kind of experiment: animal or person. The following applies: Wistar, po, read-out: INH.
The species named for data set [3] is Rattus norvegicus. As to the kind of experiment: animal or person. The note with it: Wistar, po, read-out: INH. This is another data set of the same source.
The species named for another data set is Mus musculus. As to the kind of experiment: animal or person. The following applies: Swiss, po, 3 h, read-out: INH.

Structures are written as SMILES.

Description for physchem: n-Octanol-water partition coefficient, log P of the compound

As for `Cc1ccc(C(=O)Nc2ccccc2C(=O)N/N=C/c2ccc(O)c(O)c2)cc1`, the UI in the data set filed under Rattus norvegicus [1] stood at 1.417. In the data set “physchem”, this compound displayed a logP of 4.02. Besides, the inhibition in vivo at 10 mg/kg came out at 55.3% in the data set filed under Rattus norvegicus [2], 55.1% in the data set listed under Rattus norvegicus [3] and 77.8% in the data set listed under Mus musculus.

`Cc1ccc(C(=O)Nc2ccccc2C(=O)N/N=C/c2ccc(Cl)cc2Cl)cc1` displayed a logP in the data set “physchem” of 6.12. Besides, the figures for the inhibition in vivo at 10 mg/kg in the data set listed under Rattus norvegicus [2] and in the data set filed under Rattus norvegicus [3] were 0.35% and 1.06%, respectively.

In the data set listed under Rattus norvegicus [1], `COc1cc(OC)c(OC)cc1/C=N/NC(=O)c1ccccc1NC(=O)c1ccc(C)cc1` displayed a UI of 1.75. The compound further returned a logP in the data set “physchem” of 4.23. For the same compound, the figures for the inhibition in vivo at 10 mg/kg in the data set listed under Rattus norvegicus [2], in the data set filed under Rattus norvegicus [3] and in the data set filed under Mus musculus were 62.4%, 62.2% and 46.2%, respectively.

The compound `Cc1ccc(C(=O)Nc2ccccc2C(=O)N/N=C/c2ccc(N(C)C)cc2)cc1` yielded a logP in the data set “physchem” of 4.41. Further, the inhibition in vivo at 10 mg/kg in the data set listed under Rattus norvegicus [2] and in the data set listed under Rattus norvegicus [3] was 22.3% throughout.

On to `Cc1ccc(C(=O)Nc2ccccc2C(=O)N/N=C/c2ccc(O)cc2)cc1`, for which the logP in the data set “physchem” is 4.14. The inhibition in vivo at 10 mg/kg in the data set listed under Rattus norvegicus [2] worked out at 19.5%; in the data set filed under Rattus norvegicus [3], 23.3%.

For `COc1cc(/C=N/NC(=O)c2ccccc2NC(=O)c2ccc(C)cc2)cc(OC)c1OC`, the UI in the data set filed under Rattus norvegicus [1] is given as 1.583. The logP in “physchem” was 4.63. Moreover, the inhibition in vivo at 10 mg/kg in the data set listed under Rattus norvegicus [2] amounted to 62.8%; in the data set listed under Rattus norvegicus [3], 64.3%; in the data set listed under Mus musculus it was 34.2%.

`COc1cc(/C=N/NC(=O)c2ccccc2NC(=O)c2ccc(C)cc2)ccc1O` yielded a logP in the data set “physchem” of 4.1. The inhibition in vivo at 10 mg/kg in the data set listed under Rattus norvegicus [2] was 19.5%; in the data set filed under Rattus norvegicus [3] it was 23.3%.

`COc1cc(OC)c(/C=N/NC(=O)c2ccccc2NC(=O)c2ccc(C)cc2)c(OC)c1`: the logP in the data set “physchem” amounted to 4.87. Further, the results for the inhibition in vivo at 10 mg/kg in the data set filed under Rattus norvegicus [2] and in the data set filed under Rattus norvegicus [3] were 13.1% and 14.5%, respectively.

`Cc1ccc(C(=O)Nc2ccccc2C(=O)N/N=C/c2ccccc2)cc1`: the log partition coefficient (logP) in the data set “physchem” came to 4.61. In addition, the inhibition in vivo at 10 mg/kg is 15.2% in the data set filed under Rattus norvegicus [2] and 15.9% in the data set listed under Rattus norvegicus [3].

In “physchem”, `COc1ccc(/C=N/NC(=O)c2ccccc2NC(=O)c2ccc(C)cc2)cc1` returned a logP of 4.66. Besides, the figures for the inhibition in vivo at 10 mg/kg in the data set listed under Rattus norvegicus [2] and in the data set listed under Rattus norvegicus [3] were 19.3% and 22.6%, respectively.

The record behind these values is ChEMBL document CHEMBL3414520, “Synthesis, analgesic, anti-inflammatory and anti-ulcerogenic activities of certain novel Schiff's bases as fenamate isosteres” (Bioorg Med Chem Lett, 2015).
